These results are taken from patent US20260242398A1, “BENZOPYRIMIDIN-4(3H)-ONES AS PI3K INHIBITORS” (OnKure, Inc., priority 2022, published 2026).

Where two headings read alike, the source gives them in different places.

The EC50 is the concentration that produces a half-maximal response. By IC50 is commonly meant the concentration needed to halve the response being measured.

Assay type in all cases: cell-based
In experiment [1] the test system is T47D cells expressing mutant PI3Ka (H1047R). Kind of experiment: In vitro cell proliferation (CellTiter-Glo, 72 hours), T47D cells. The settings on record: inhibition of proliferation, read-out: Avg T-47D EC50. As for the experimental part:
(§1) In Vitro Cell Proliferation: Determination of EC50 Values for Inhibition of Proliferation in T47D Cells Expressing Mutant PI3Ka (H1047R) Mutation and SKBR3 Cells Express WT PI3Ka.
(§2) T47D or SKBR3 cells were trypsinized, resuspended in culture media and seeded onto assay ready plates. T47D culture media consisted of RPMI, 10% FBS and Insulin (0.2 units/mL). SKBR3 culture media consisted of McCoys 5a and 10% FBS. Cells were seeded at a density of 1,500 cells/well and dispensed in 50 uL onto 384 well assay ready plates (Corning, 89089-790). Assay ready plates had previously been stamped with 10-point dilutions of compounds of interest, as well as controls. The Echo655 is used to stamp plates at 40 nL of compound or DMSO. Cells were grown for 72 hours at 37° Celsius and 5% CO2. After 72 hours, cells were equilibrated at room temperature for 15 minutes. 30 uL of CellTiter-Glo reagent is added to the plate, which is then shaken for 30 minutes at temperature at 300-500 rpm. Cells are then read on an Envision plate reader. The percentage of inhibition of proliferation was calculated using the following formula: % Inhibition=100×(LumD−LumSample)/(LumD−LumInh), where D is obtained from cells treated with 0.1% DMSO only; Inh is obtained from cells treated with 10 uM Alpelisib. The effective concentration achieving 50% inhibition of proliferation (EC50) is calculated by fitting the Curve using XWfit (v5.3.1.3), equation 201: Y=Bottom+(Top−Bottom)/(1+10^((Log EC50−X)*HillSlope)).
In general terms: Cellular ATP, detected with luciferase, serves as a proxy for viable cell number.

Experiment [2] relates to phosphorylation of AKT (pAKT) in SKBR3 cells express WT PI3Ka. Briefly: In vitro cell pAKT (Ser473) HTRF, SKBR3 cells. As to the method: (§3) In Vitro Cell pAKT: Determination of IC50 Values for Inhibition of Phosphorylation of AKT (pAKT) in T47D Cells Expressing Mutant PI3Ka (H1047R) Mutation and SKBR3 Cells Express WT PI3Ka.
(§4) T47D or SKBR3 cells were trypsinized, resuspended in culture media and seeded onto assay ready plates. T47D culture media consisted of RPMI, 10% FBS and Insulin (0.2 units/mL). SKBR3 culture media consisted of McCoy's 5a and 10% FBS. Cells were seeded at a density of 5000 cells/well and dispensed in 12.5 uL onto 384 well assay ready plates (Perkin Elmer, 6008238)). Assay ready plates had previously been stamped with 10-point dilutions of compounds of interest, as well as controls. The Echo655 is used to stamp plates at 12.5 nL of compound or DMSO. Cells were grown for 6 hour at 37° Celsius and 5% CO2. After 6 hour, 4 uL of Lysis buffer reagent was added to the plate, which was then centrifuged for 1 minute at 1000 rpm. Then the plate was incubated at room temperature for 30 minutes. After 30 minutes, 4 uL of antibody mix containing Eu Cryptate, d2 Cryptate, and detection buffer, was added to the plate. The plate was centrifuged for 1 minute at 1000 rpm and then incubated overnight at room temperature. The plate was read on an Envision plate reader using the HTRF protocol. The percentage of inhibition of AKT phosphorylation was calculated using the following formula: % Inhibition=100×(pAKTHC−pAKTSample)/(pAKTHC−pAKTLC)), where pAKTHC is obtained from cells treated with 0.1% DMSO only; pAKTLC is obtained from cells treated with 10 uM Alpelisib. The IC50 (concentration achieving 50% inhibition of pAKT) is calculated by fitting the Curve using XWfit (v5.3.1.3), equation 201: Y=Bottom+(Top−Bottom)/(1+10^((Log IC50−X)*HillSlope)).
(Time-resolved FRET reads energy transfer from a long-lived donor to a nearby acceptor.)

Experiment [3] has as its system SKBR3 cells express WT PI3Ka. Briefly: In vitro cell proliferation (CellTiter-Glo, 72 hours), SKBR3 cells. As for the experimental part:
as §1, §2

In experiment [4] the test system is phosphorylation of AKT (pAKT) in T47D cells expressing mutant PI3Ka (H1047R). Kind of experiment: In vitro cell pAKT (Ser473) HTRF, T47D cells. As to the method: as §3, §4
Setting [5] is: read-out: Avg T-47D IC50, inhibition of pAKT, 6 hour.
Where [6] appears, read: Homo sapiens, SK-BR-3, 6 h, inhibition of pAKT.
Setting [7] is: Homo sapiens, SK-BR-3, 72 h, inhibition of proliferation.
[8] abbreviates: inhibition of pAKT, 6 hour, read-out: Avg T-47D IC50.

`Cc1cc(C(C)Nc2ccccc2C(=O)O)c2nc(N3CC[Si](C)(C)CC3)n(C)c(=O)c2c1` (single isomer, unassigned) [Example 1, 2-((1-(2-(4,4-dimethyl-1,4-azasilinan-1-yl)-3,6-dimethyl-4-oxo-3,4-dihydroquinazolin-8-yl)ethyl)amino)benzoic acid]: the EC50 in experiment [1] was 0.5 to 2 µM; in experiment [3] (Homo sapiens, SK-BR-3, inhibition of proliferation) it was 2 to 15 µM. Further, the IC50 is > 15 µM in experiment [2] (Homo sapiens, SK-BR-3, inhibition of pAKT, 6 hour) and 0.001 to 1 µM in experiment [4] (setting [5]).
For the compound `Cc1cc(C(C)Nc2ccccc2C(=O)O)c2nc(N3CC[Si](C)(C)CC3)n(C)c(=O)c2c1` (single isomer, unassigned) [Example 2, 2-((1-(2-(4,4-dimethyl-1,4-azasilinan-1-yl)-3,6-dimethyl-4-oxo-3,4-dihydroquinazolin-8-yl)ethyl)amino)benzoic acid], the EC50 in experiment [1] and in experiment [3] (inhibition of proliferation) was 2 to 15 µM throughout. Besides, the IC50 in experiment [2] (inhibition of pAKT, 6 hour) was > 15 µM; in experiment [4] (setting [5]) it was > 15 µM.
As to `Cc1cc(C(C)Nc2ccccc2C(=O)O)c2nc(N3CCCC(C)(C)C3)n(C)c(=O)c2c1` (single isomer, unassigned) [Example 3, 2-((1-(2-(3,3-dimethylpiperidin-1-yl)-3,6-dimethyl-4-oxo-3,4-dihydroquinazolin-8-yl)ethyl)amino)benzoic acid], the EC50 in experiment [1] is 0.5 to 2 µM; in experiment [3] (setting [7]), > 15 µM. The IC50 is > 15 µM in experiment [2] (setting [6]) and 1 to 5 µM in experiment [4] (setting [8]).
Take `Cc1cc(C(C)Nc2ccccc2C(=O)O)c2nc(N3CCCC(C)(C)C3)n(C)c(=O)c2c1` (single isomer, unassigned) [Example 4, 2-((1-(2-(3,3-dimethylpiperidin-1-yl)-3,6-dimethyl-4-oxo-3,4-dihydroquinazolin-8-yl)ethyl)amino)benzoic acid]: the concentration for a half-maximal effect (EC50) is 2 to 15 µM in experiment [1] and > 15 µM in experiment [3] (inhibition of proliferation). The IC50 in experiment [2] (inhibition of pAKT, 6 hour) was > 15 µM; in experiment [4] (setting [8]) it was > 15 µM.
With `Cc1cc(C(C)Nc2ccccc2C(=O)O)c2nc(N3CC4(CCCCC4)C3)n(C)c(=O)c2c1` (single isomer, unassigned) [Example 5, 2-((1-(3,6-dimethyl-4-oxo-2-(2-azaspiro[3.5]nonan-2-yl)-3,4-dihydroquinazolin-8-yl)ethyl)amino)benzoic acid], the EC50 in experiment [1] is 2 to 15 µM; in experiment [3] (inhibition of proliferation) it was > 15 µM. In addition, the IC50 in experiment [2] (inhibition of pAKT, 6 hour) is > 15 µM; in experiment [4] (setting [8]), 1 to 5 µM.
For the compound `Cc1cc(C(C)Nc2ccccc2C(=O)O)c2nc(N3CC4(CCCCC4)C3)n(C)c(=O)c2c1` (single isomer, unassigned) [Example 6, 2-((1-(3,6-dimethyl-4-oxo-2-(2-azaspiro[3.5]nonan-2-yl)-3,4-dihydroquinazolin-8-yl)ethyl)amino)benzoic acid], the concentration giving a half-maximal response (EC50) in experiment [1] and in experiment [3] (setting [7]) was > 15 µM each time. The IC50 in experiment [2] (setting [6]) and in experiment [4] (setting [8]) was > 15 µM in each case.
`COc1ccc2c(c1)CN(c1nc3c(C(C)Nc4ccccc4C(=O)O)cc(C)cc3c(=O)n1C)C2` (single isomer, unassigned) [Example 7, 2-((1-(2-(5-methoxyisoindolin-2-yl)-3,6-dimethyl-4-oxo-3,4-dihydroquinazolin-8-yl)ethyl)amino)benzoic acid]: the EC50 was 0.5 to 2 µM in experiment [1] and > 15 µM in experiment [3] (setting [7]). Besides, the IC50 is > 15 µM in experiment [2] (setting [6]) and 0.001 to 1 µM in experiment [4] (setting [8]).
On to `COc1ccc2c(c1)CN(c1nc3c(C(C)Nc4ccccc4C(=O)O)cc(C)cc3c(=O)n1C)C2` (single isomer, unassigned) [Example 8, 2-((1-(2-(5-methoxyisoindolin-2-yl)-3,6-dimethyl-4-oxo-3,4-dihydroquinazolin-8-yl)ethyl)amino)benzoic acid], for which the half-maximal effective concentration (EC50) in experiment [1] and in experiment [3] (inhibition of proliferation) was > 15 µM each time. The half-maximal inhibitory concentration (IC50) in experiment [2] (inhibition of pAKT, 6 hour) is > 15 µM; in experiment [4] (setting [8]) it was > 15 µM.
Turning to `Cc1cc(C(C)Nc2ccccc2C(=O)O)c2nc(N3Cc4ccc(Cl)cc4C3)n(C)c(=O)c2c1` (single isomer, unassigned) [Example 9, 2-((1-(2-(5-chloroisoindolin-2-yl)-3,6-dimethyl-4-oxo-3,4-dihydroquinazolin-8-yl)ethyl)amino)benzoic acid], the EC50 in experiment [1] was 0.5 to 2 µM; in experiment [3] (inhibition of proliferation), > 15 µM. The figures for the IC50 in experiment [2] (setting [6]) and in experiment [4] (setting [8]) were > 15 µM and 1 to 5 µM, respectively.
For the compound `Cc1cc(C(C)Nc2ccccc2C(=O)O)c2nc(N3Cc4ccc(Cl)cc4C3)n(C)c(=O)c2c1` (single isomer, unassigned) [Example 10, 2-((1-(2-(5-chloroisoindolin-2-yl)-3,6-dimethyl-4-oxo-3,4-dihydroquinazolin-8-yl)ethyl)amino)benzoic acid], the EC50 in experiment [1] and in experiment [3] (inhibition of proliferation) was 2 to 15 µM throughout. The 50% inhibitory concentration (IC50) is > 15 µM in experiment [2] (inhibition of pAKT, 6 hour) and > 15 µM in experiment [4] (setting [8]).
With `Cc1cc(C(C)Nc2ccccc2C(=O)O)c2nc(OCC(C)C)n(C)c(=O)c2c1` (single isomer, unassigned) [Example 11, 2-((1-(2-isobutoxy-3,6-dimethyl-4-oxo-3,4-dihydroquinazolin-8-yl)ethyl)amino)benzoic acid], the EC50 is 0.5 to 2 µM in experiment [1] and > 15 µM in experiment [3] (setting [7]). Moreover, the IC50 was > 15 µM in experiment [2] (setting [6]) and 1 to 5 µM in experiment [4] (setting [8]).
On to `Cc1cc(C(C)Nc2ccccc2C(=O)O)c2nc(OCC(C)C)n(C)c(=O)c2c1` (single isomer, unassigned) [Example 12, 2-((1-(2-isobutoxy-3,6-dimethyl-4-oxo-3,4-dihydroquinazolin-8-yl)ethyl)amino)benzoic acid], for which the values for the 50% effective concentration (EC50) in experiment [1] and in experiment [3] (inhibition of proliferation) were 2 to 15 µM and > 15 µM, respectively. Also, the half-inhibitory concentration (IC50) is > 15 µM in experiment [2] (inhibition of pAKT, 6 hour) and > 15 µM in experiment [4] (setting [8]).
On to `Cc1cc(C(C)Nc2ccc(C#N)cc2C(=O)O)c2nc(N3CCC(C)(C)CC3)n(C)c(=O)c2c1` (single isomer, unassigned) [Example 15, 5-cyano-2-((1-(2-(4,4-dimethylpiperidin-1-yl)-3,6-dimethyl-4-oxo-3,4-dihydroquinazolin-8-yl)ethyl)amino)benzoic acid], for which the EC50 lay in the range of 2 to 15 µM in experiment [1] (Homo sapiens, T47D, 72 h) and 2 to 15 µM in experiment [3] (setting [7]).
For `Cc1cc(C(C)Nc2ccc(C#N)cc2C(=O)O)c2nc(N3CCC(C)(C)CC3)n(C)c(=O)c2c1` (single isomer, unassigned) [Example 16, 5-cyano-2-((1-(2-(4,4-dimethylpiperidin-1-yl)-3,6-dimethyl-4-oxo-3,4-dihydroquinazolin-8-yl)ethyl)amino)benzoic acid], the 50% effective concentration (EC50) in experiment [1] and in experiment [3] (inhibition of proliferation) was 2 to 15 µM in each case.
Take `Cc1cc(C(C)Nc2ccccc2C(=O)O)c2nc(N3Cc4ccc(C(N)=O)cc4C3)n(C)c(=O)c2c1` (stereo not drawn) [Example 19, 2-((1-(2-(5-carbamoylisoindolin-2-yl)-3,6-dimethyl-4-oxo-3,4-dihydroquinazolin-8-yl)ethyl)amino)benzoic acid]: the EC50 in experiment [1] (Homo sapiens, T47D, 72 h) was 0.5 to 2 µM; in experiment [3] (setting [7]), > 15 µM.
